According to ChEMBL document CHEMBL4330132, “5-Keto-3-cyano-2,4-diaminothiophenes as selective maternal embryonic leucine zipper kinase inhibitors” (Bioorg Med Chem Lett, 2019):
≈ marks a conversion by molar mass, not a printed value.

System: not listed separately
Assay: Stability in mouse liver microsomes assessed as parent compound remaining after 1 hr
Assay type: ADME, Microsome
Conditions: read-out: Stability

Compound | remaining at 1 h [%]
N#Cc1c(NCCN2CCNCC2)sc(C(=O)c2ccc(Br)s2)c1N | 81

System: not listed separately
Assay: Kinetic solubility of the compound in pH 7.4 phosphate buffer
Assay type: physicochemical
Conditions: read-out: Kinetic_solubility

Compound | solubility kinetic [µg/mL]
N#Cc1c(NCCN2CCNCC2)sc(C(=O)c2ccc(Br)s2)c1N | 189 (≈ 429 µM)

Molecular target: T1, Maternal embryonic leucine zipper kinase (Homo sapiens, UniProt Q14680)
Assay: Inhibition of recombinant human MELK expressed in Escherichia coli using ZIPtide as substrate measured after 0.5 hrs by ADP-Glo assay
Conditions: not given
Target sequence in this assay (Q14680 whole entry): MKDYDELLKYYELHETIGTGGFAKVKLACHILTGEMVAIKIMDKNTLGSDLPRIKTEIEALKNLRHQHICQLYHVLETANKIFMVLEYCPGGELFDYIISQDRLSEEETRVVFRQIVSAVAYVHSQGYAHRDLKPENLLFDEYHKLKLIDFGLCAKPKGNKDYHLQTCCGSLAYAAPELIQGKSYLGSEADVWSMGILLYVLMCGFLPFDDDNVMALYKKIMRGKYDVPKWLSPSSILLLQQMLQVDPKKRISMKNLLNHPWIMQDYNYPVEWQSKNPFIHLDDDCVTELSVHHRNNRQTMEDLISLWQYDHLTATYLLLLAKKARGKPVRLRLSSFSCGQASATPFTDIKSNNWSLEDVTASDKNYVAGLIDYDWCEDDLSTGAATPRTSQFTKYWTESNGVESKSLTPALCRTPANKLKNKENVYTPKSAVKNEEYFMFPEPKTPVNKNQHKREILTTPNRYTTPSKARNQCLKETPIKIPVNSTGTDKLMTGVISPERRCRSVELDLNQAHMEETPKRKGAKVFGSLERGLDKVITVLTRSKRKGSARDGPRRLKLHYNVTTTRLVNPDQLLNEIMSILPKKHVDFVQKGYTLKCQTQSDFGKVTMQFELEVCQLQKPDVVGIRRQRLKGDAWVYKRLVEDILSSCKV

Compound | IC50 [nM]
CC(C)Nc1sc(C(=O)c2ccc(-c3ccncc3)s2)c(N)c1C#N | 269
CC(C)Nc1sc(C(=O)c2ccco2)c(N)c1C#N | 1350
N#Cc1c(NCc2ccccc2)sc(C(=O)c2ccc(Cl)s2)c1N | > 5000
CC(C)Nc1sc(C(=O)c2cccnc2)c(N)c1C#N | > 5000
CC(=O)c1sc(NC(C)C)c(C#N)c1N | > 5000
Cc1ccc(C(=O)c2sc(NC(C)C)c(C#N)c2N)s1 | 494
N#Cc1c(NCC(N)=O)sc(C(=O)c2ccc(Br)s2)c1N | 540
C=CCNc1sc(C(=O)C(C)(C)C)c(N)c1C#N | > 5000
N#Cc1ccccc1Nc1sc(C(=O)c2ccc(Br)s2)c(N)c1C#N | > 5000
COc1ccc(C(=O)c2sc3nc(C)ccc3c2N)cc1OC | > 5000
CC(C)Nc1sc(C(=O)c2ccc(Cl)s2)c(N)c1C(N)=O | 388
CCNc1sc(C(=O)c2ccc(Cl)s2)c(N)c1C#N | 222
CC(C)Nc1sc(C(=O)c2cc(Br)cs2)c(N)c1C#N | 599
CC(C)Nc1sc(C(=O)c2ccc(Br)s2)c(N)c1C#N | 122
CC(C)Nc1sc(C(=O)c2ccncc2)c(N)c1C#N | > 5000
CC(C)Nc1sc(C(=O)c2ccn[nH]2)c(N)c1C#N | 1700
N#Cc1c(NCCCN)sc(C(=O)c2ccc(Br)s2)c1N | 141
CC(C)Nc1nc(N)c(C(=O)c2ccc(Cl)s2)s1 | > 5000

Compound | IC50 [nM]
N#Cc1c(NCCN2CCNCC2)sc(C(=O)c2ccc(Br)s2)c1N | 98
COc1ccc(C(=O)c2sc(NC(C)C)c(C#N)c2N)cc1OC | 1770
COc1ccc(C(=O)c2sc(NC(C)C)c(C#N)c2N)cc1 | 4130
N#Cc1c(Nc2ccccc2F)sc(C(=O)c2ccc(Cl)s2)c1N | 707
CCNc1sc(C(=O)c2cccs2)c(N)c1C#N | 1190
CC(C)Nc1sc(C(=O)c2ccc(C#N)cc2)c(N)c1C#N | > 5000
CC(C)Nc1sc(C(=O)c2cccc(C#N)c2)c(N)c1C#N | > 5000
CC(C)Nc1sc(C(=O)c2ccc3c(c2)OCO3)c(N)c1C#N | 1120
N#Cc1c(NCCO)sc(C(=O)c2ccc(Br)s2)c1N | 313
CC(C)Nc1sc(C(=O)c2ccc(-c3ccc(O)cc3)s2)c(N)c1C#N | 241
CC(C)Nc1sc(C(=O)c2cc(Cl)cs2)c(N)c1C#N | 575
Cc1ccc(C(=O)c2sc3nc(C)ccc3c2N)cc1 | > 5000
CC(C)Nc1sc(C(=O)c2ccc(Cl)s2)cc1C#N | > 5000
CC(C)Nc1sc(C(=O)c2ccc(-c3cccc(O)c3)s2)c(N)c1C#N | 350
C=CCNc1sc(C(=O)c2ccc(Cl)s2)c(N)c1C#N | 638
CC(C)Nc1sc(C(=O)c2ccc(I)s2)c(N)c1C#N | 112
CC(C)N(C)c1sc(C(=O)c2ccc(Cl)s2)c(N)c1C#N | 1420

Molecular target: T1, Maternal embryonic leucine zipper kinase
Assay: Inhibition of recombinant human MELK expressed in Escherichia coli at 5 uM using ZIPtide as substrate measured after 0.5 hrs by ADP-Glo assay relative to control
Conditions: not given
Target sequence in this assay (Q14680 whole entry, looked up): as the sequence (Q14680 whole entry) above

Compound | inhibition [%]
CC(C)Nc1nc(N)c(C(=O)c2ccc(Cl)s2)s1 | 46
Cc1ccc(C(=O)c2sc(NC(C)C)c(C#N)c2N)cc1 | 49
CC(C)Nc1sc(C(=O)c2ccccc2)c(N)c1C#N | 47

System: not listed separately
Assay: Lipophilicity, log P of the compound
Assay type: physicochemical
Conditions: octanol/water

Compound | logP
N#Cc1c(NCCN2CCNCC2)sc(C(=O)c2ccc(Br)s2)c1N | 3
